{
  "source": "patent US20230391881A1",
  "about": "“COMPOSITIONS AND METHODS FOR OVERCOMING DR5-INDUCED IMMUNE EVASION BY SOLID TUMORS” (University of Virginia Patent Foundation, priority 2020, published 2023)",
  "format_in_all_cases": "in vivo, mouse",
  "key": {"4T1 tumors": {"system": "4T1 tumors", "test": "Tumor regression in 4T1 syngeneic TNBC tumor models", "conditions": "antibodies i.p., similar dose (FIGS. 6I and 6J)", "procedure": "FIGS. 4A-4K. DR5 agonist activated ROCK1 functions to help PD-L1 surface mobilization. (FIGS. 4A and 4B) KMTR2 and lexatumumab treated MDA-MB-436 and OVCAR3 (respectively) lysates for indicated early time points were analyzed for caspase-8, caspase-3, ROCK1, pMLC, PARP, PD-L1 and CMTM6 etc. as indicated. Vertical arrows indicate sequential kinetics of caspase-8, ROCK1, and caspase-3 activation, arrows with “n.s.” below them indicate nonspecific band by ROCK1 antibody. (FIG. 4C) OVCAR3 cells were treated with pMLC activating ionophore A23187 (positive control) and lexatumumab ±ROCK1 inhibitors or ±rDR5 or ±rFOLR1. Lysates were later analyzed for ROCK1, pMLC, caspase-3 and PARP with GAPDH as loading control. (FIG. 4D) MDA-MB-436 and OVCAR3 cells were treated with indicated ROCK1 inhibitors 2 hours prior to DR5 agonist KMTR2 treatment. After 4 hours flow cytometry was used to analyze surface PD-L1. […] Relative luciferase signal was quantified and plotted after subtraction of background signal from untreated cells. […] Tumor volumes were quantified at indicated days by caliper measurements. […] Statistical significance in FIG. 4J was determined by unpaired student t-test and in FIG. 4K using two-tailed […] Wilcoxon Mann-Whitney test. […]\nFIGS. 6A-6M. […] CD8/CD45 and CD4/CD45 expressing cells were measured by flow cytometry. […] Harvested tumors homogenized followed by quantitation. […]"}, "[1]": {"system": "chi-G4S-DR5 stable 4T1 tumors", "test": "Immunoblotting of Chi-G4S-DR5 stable 4T1 tumor lysates (granzyme-b, Foxp3)", "conditions": "size matched tumors, 6 total doses (FIG. 6D)"}, "[2]": {"system": "chi-G4S-DR5 stable MC38 tumors", "test": "Immunoblotting of Chi-G4S-DR5 stable MC38 tumor lysates (granzyme-b)", "conditions": "size matched tumors, 6 total doses (FIG. 18A)"}},
  "data": [
    {"substance": "avelumab: clinical anti-PD-L1 antibody (human/mouse cross-reactive); VL and VH SEQ ID NOs: 9 and 10", "values": [
      {"measurement": "tumor regression", "setting": "4T1 tumors", "value": "only stabilized the tumors"},
      {"measurement": "granzyme-b activity in tumors compared to DR5 agonist alone", "setting": "[1]", "value": "significantly higher granzyme-b activity"},
      {"measurement": "granzyme-b activity in tumors compared to DR5 agonist alone", "setting": "[2]", "value": "significantly higher granzyme-b activity"}
    ]}
  ]
}
